# Laboratory results from US11802111B2, “Cyclobutyl amide monoacylglycerol lipase modulators” (Janssen Pharmaceutica NV, priority 2020, dated 2023).
# Biological target: human MGL from HeLa cells (Homo sapiens (Human), UniProt Q99685)
# Assay: MGL in vitro activity assay ([glycerol-1,3-3H]-oleoyl glycerol hydrolysis, activated carbon filtration)
# Type: biochemical
# Conditions: 300 nM [Glycerol-1,3-3H]-oleoyl glycerol, one hour
# In short: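 Endogenous human MGL in HeLa cells/homogenates incubated 1 h with test compounds and 300 nM [glycerol-1,3-3H]-oleoyl glycerol. Released 3H-glycerol passing an activated carbon filter counted as activity; screening at 10 μM compound, top IC50 concentration set empirically.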
# Sequence of human MGL from HeLa cells (Q99685 whole entry): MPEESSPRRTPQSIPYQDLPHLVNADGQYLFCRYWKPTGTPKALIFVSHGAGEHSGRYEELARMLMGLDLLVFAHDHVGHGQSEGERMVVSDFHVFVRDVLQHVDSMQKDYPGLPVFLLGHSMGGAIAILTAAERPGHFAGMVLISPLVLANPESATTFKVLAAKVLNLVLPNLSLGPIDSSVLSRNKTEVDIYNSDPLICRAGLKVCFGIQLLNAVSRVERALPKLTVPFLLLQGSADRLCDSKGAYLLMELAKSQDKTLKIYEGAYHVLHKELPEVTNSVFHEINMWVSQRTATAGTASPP
row,IC50 [nM],SMILES
1,3.5,"Cc1ccc(CC2CC3(C2)CN(C(=O)[C@H]2C[C@@](C)(O)C2)C3)cc1C(F)(F)F [Example 189, ((1s,3s)-3-Hydroxy-3-methylcyclobutyl)(6-(4-methyl-3-(trifluoromethyl)benzyl)-2-azaspiro[3.3]heptan-2-yl)methanone]"
2,73,"CC(C)(C)c1ccnc(CC2CC3(C2)CN(C(=O)[C@H]2C[C@@](C)(O)C2)C3)c1 [Example 190, (6-((4-(tert-Butyl)pyridin-2-yl)methyl)-2-azaspiro[3.3]heptan-2-yl)((1s,3s)-3-hydroxy-3-methylcyclobutyl)methanone]"
3,159,"COc1cccc(CC2CC3(C2)CN(C(=O)[C@H]2C[C@@](C)(O)C2)C3)n1 [Example 191, ((1s,3s)-3-Hydroxy-3-methylcyclobutyl)(6-((6-methoxypyridin-2-yl)methyl)-2-azaspiro[3.3]heptan-2-yl)methanone]"
4,22,"COc1ccc(CC2CC3(C2)CN(C(=O)[C@H]2C[C@@](C)(O)C2)C3)cc1 [Example 192, ((1s,3s)-3-Hydroxy-3-methylcyclobutyl)(6-(4-methoxybenzyl)-2-azaspiro[3.3]heptan-2-yl)methanone]"
5,5.8,"C[C@]1(O)C[C@@H](C(=O)N2CC3(CC(Cc4cccc(C(F)(F)F)c4)C3)C2)C1 [Example 193, ((1s,3s)-3-Hydroxy-3-methylcyclobutyl)(6-(3-(trifluoromethyl)benzyl)-2-azaspiro[3.3]heptan-2-yl)methanone]"
6,4.9,"C[C@]1(O)C[C@@H](C(=O)N2CC3(CC(Cc4cccc(OC(F)(F)F)c4)C3)C2)C1 [Example 194, ((1s,3s)-3-Hydroxy-3-methylcyclobutyl)(6-(3-(trifluoromethoxy)benzyl)-2-azaspiro[3.3]heptan-2-yl)methanone]"
7,4.2,"C[C@]1(O)C[C@@H](C(=O)N2CC3(CC(Cc4ccc(C(F)(F)F)cc4)C3)C2)C1 [Example 195, ((1s,3s)-3-Hydroxy-3-methylcyclobutyl)(6-(4-(trifluoromethyl)benzyl)-2-azaspiro[3.3]heptan-2-yl)methanone]"
8,2.8,"C[C@]1(O)C[C@@H](C(=O)N2CC3(CC(Cc4ccccc4OC(F)(F)F)C3)C2)C1 [Example 196, ((1s,3s)-3-Hydroxy-3-methylcyclobutyl)(6-(2-(trifluoromethoxy)benzyl)-2-azaspiro[3.3]heptan-2-yl)methanone]"
9,64,"COc1cccc(CC2CC3(C2)CN(C(=O)[C@H]2C[C@@](C)(O)C2)C3)c1 [Example 197, ((1s,3s)-3-Hydroxy-3-methylcyclobutyl)(6-(3-methoxybenzyl)-2-azaspiro[3.3]heptan-2-yl)methanone]"
10,56,"C[C@]1(O)C[C@@H](C(=O)N2CC3(CC(Cc4ccc5ccccc5n4)C3)C2)C1 [Example 198, ((1s,3s)-3-Hydroxy-3-methylcyclobutyl)(6-(quinolin-2-ylmethyl)-2-azaspiro[3.3]heptan-2-yl)methanone]"
11,4.1,"C[C@]1(O)C[C@@H](C(=O)N2CC3(CC(Cc4ccccc4C(F)(F)F)C3)C2)C1 [Example 199, ((1s,3s)-3-Hydroxy-3-methylcyclobutyl)(6-(2-(trifluoromethyl)benzyl)-2-azaspiro[3.3]heptan-2-yl)methanone]"
12,0.6,"Cc1cc(CC2CC3(C2)CN(C(=O)[C@H]2C[C@@](C)(O)C2)C3)ccc1C1CC1 [Example 202, (6-(4-Cyclopropyl-3-methylbenzyl)-2-azaspiro[3.3]heptan-2-yl)((1s,3s)-3-hydroxy-3-methylcyclobutyl)methanone]"
13,1140,"C[C@]1(O)C[C@@H](C(=O)N2CC3(CC(Cc4ccncc4)C3)C2)C1 [Example 206, ((1s,3s)-3-Hydroxy-3-methylcyclobutyl)(6-(pyridin-4-ylmethyl)-2-azaspiro[3.3]heptan-2-yl)methanone]"
14,1.7,"Cc1cccc(CC2CC3(C2)CN(C(=O)[C@H]2C[C@@](C)(O)C2)C3)c1C1CC1 [Example 207, (6-(2-Cyclopropyl-3-methylbenzyl)-2-azaspiro[3.3]heptan-2-yl)((1s,3s)-3-hydroxy-3-methylcyclobutyl)methanone]"
15,5.3,"CC(C)(C)c1ccccc1CC1CC2(C1)CN(C(=O)[C@H]1C[C@@](C)(O)C1)C2 [Example 208, (6-(2-(tert-Butyl)benzyl)-2-azaspiro[3.3]heptan-2-yl)((1s,3s)-3-hydroxy-3-methylcyclobutyl)methanone]"
16,2.2,"Cc1cccc(CC2CC3(C2)CN(C(=O)[C@H]2C[C@@](C)(O)C2)C3)c1C(F)(F)F [Example 209, ((1s,3s)-3-Hydroxy-3-methylcyclobutyl)(6-(3-methyl-2-(trifluoromethyl)benzyl)-2-azaspiro[3.3]heptan-2-yl)methanone]"
17,0.8,"CC(C)c1c(CC2CC3(C2)CN(C(=O)[C@H]2C[C@@](C)(O)C2)C3)cccc1C(F)(F)F [Example 210, ((1s,3s)-3-Hydroxy-3-methylcyclobutyl)(6-(2-isopropyl-3-(trifluoromethyl)benzyl)-2-azaspiro[3.3]heptan-2-yl)methanone]"
18,4.1,"Cc1ccc(C(F)(F)F)c(CC2CC3(C2)CN(C(=O)[C@H]2C[C@@](C)(O)C2)C3)c1 [Example 211, ((1s,3s)-3-Hydroxy-3-methylcyclobutyl)(6-(5-methyl-2-(trifluoromethyl)benzyl)-2-azaspiro[3.3]heptan-2-yl)methanone]"
19,0.3,"Cc1cc(CC2CC3(C2)CN(C(=O)[C@H]2C[C@@](C)(O)C2)C3)ccc1C(F)(F)F [Example 212, ((1s,3s)-3-Hydroxy-3-methylcyclobutyl)(6-(3-methyl-4-(trifluoromethyl)benzyl)-2-azaspiro[3.3]heptan-2-yl)methanone]"
20,4.1,"Cc1ccc(CC2CC3(C2)CN(C(=O)[C@H]2C[C@@](C)(O)C2)C3)c(C(F)(F)F)c1 [Example 213, ((1s,3s)-3-Hydroxy-3-methylcyclobutyl)(6-(4-methyl-2-(trifluoromethyl)benzyl)-2-azaspiro[3.3]heptan-2-yl)methanone]"
21,417,"Cn1nc(C(F)(F)F)cc1CC1CC2(C1)CN(C(=O)[C@H]1C[C@@](C)(O)C1)C2 [Example 214, ((1s,3s)-3-Hydroxy-3-methylcyclobutyl)(6-((1-methyl-3-(trifluoromethyl)-1H-pyrazol-5-yl)methyl)-2-azaspiro[3.3]heptan-2-yl)methanone]"
22,43,"Cn1ncc2ccc(CC3CC4(C3)CN(C(=O)[C@H]3C[C@@](C)(O)C3)C4)cc21 [Example 215, ((1s,3s)-3-Hydroxy-3-methylcyclobutyl)(6-((1-methyl-1H-indazol-6-yl)methyl)-2-azaspiro[3.3]heptan-2-yl)methanone]"
23,12,"COc1ccccc1CC1CC2(C1)CN(C(=O)[C@H]1C[C@@](C)(O)C1)C2 [Example 216, ((1s,3s)-3-Hydroxy-3-methylcyclobutyl)(6-(2-methoxybenzyl)-2-azaspiro[3.3]heptan-2-yl)methanone]"
24,3.5,"COc1ccc(CC2CC3(C2)CN(C(=O)[C@H]2C[C@@](C)(O)C2)C3)c(C(F)(F)F)c1 [Example 217, ((1s,3s)-3-Hydroxy-3-methylcyclobutyl)(6-(4-methoxy-2-(trifluoromethyl)benzyl)-2-azaspiro[3.3]heptan-2-yl)methanone]"
25,6.3,"C[C@]1(O)C[C@@H](C(=O)N2CC3(CC(Cc4cccc(C5CC5)c4)C3)C2)C1 [Example 218, (6-(3-Cyclopropylbenzyl)-2-azaspiro[3.3]heptan-2-yl)((1s,3s)-3-hydroxy-3-methylcyclobutyl)methanone]"
